Measured values taken from PMC10518255, “A first-in-class pan-lysyl oxidase inhibitor impairs stromal remodeling and enhances gemcitabine response and survival in pancreatic cancer” (Nature Cancer, 2023).

Key:
[1] = test system: human pancreatic cancer CAF remodeled organotypic matrices; assay: Matrix stiffness by unconfined compression testing of organotypic matrices; assay type: cell-based; conditions: human pancreatic cancer CAFs, PXS-5505 during remodeling
Experimental: Unconfined compression of 3D organotypic collagen matrices treated with or without PXS-5505 was performed on a TA Instruments Dynamic Hybrid Rheometer (DHR-3, TA Instruments). Remodeled collagen matrices were placed between upper and lower parallel plate geometries. A constant linear compressive rate of 5 µm s^−1 was applied to the samples and axial force (N) and gap (mm) were collected every 0.01 s. Data were processed and a stress–strain curve for each replicate was obtained. Bulk elastic modulus (kPa) was obtained as the gradient of the linear region of the stress–strain curve corrected for cross-sectional area of sample and normalized to control. Data points represent biological replicates. […]
Extended Data Fig. 4 PXS-5505 inhibits collagen cross-linking by PDAC CAFs in vitro resulting in decreased cancer cell invasion. a. […] Chemical structures of lysyl oxidase family catalyzed hydroxyallysine or allysine residues and the subsequent divalent and trivalent bonds that are formed that can be quantified by mass spectrometry. c. […] Relative fold expression of LOXL family members compared to LOX were determined by 2^–∆∆Ct approach. f. […] Comparison of measured area of matrices between control, PXS-5120 and PXS-5505 treatment groups (n = 3) over time. i. […] Representative images of invasion of KPC cancer cells into a contracted organotypic matrix as determined by H&E staining. […]

[2] = Rat pharmacokinetics, single dose orally (10 mg/kg) or intravenously (5 mg/kg)

Q: Which results are given for `Cl.Cl.NC/C=C(\F)CS(=O)(=O)c1cccc2cccnc12.O` [PXS-5505, (Z)-3-fluoro-4-(quinolin-8-ylsulfonyl)but-2-en-1-amine dihydrochloride monohydrate]?
A: stiffness (bulk modulus) of remodeled organotypic matrices [1]: decrease in stiffness (bulk modulus); Plasma concentration ([2]; 5 mg/kg iv, 0.03 hrs): 10.145; Plasma concentration ([2]; 5 mg/kg iv, 0.17 hrs): 4.593; Plasma concentration ([2]; 5 mg/kg iv, 0.5 hrs): 2.135; Plasma concentration ([2]; 5 mg/kg iv, 1 hrs): 0.7139; Plasma concentration ([2]; 5 mg/kg iv, 2 hrs): 0.1589; Plasma concentration ([2]; 5 mg/kg iv, 3 hrs): 0.055; Plasma concentration ([2]; 5 mg/kg iv, 5 hrs): 0.008393; Plasma concentration ([2]; 10 mg/kg oral, 0.25 hrs): 2.305; Plasma concentration ([2]; 10 mg/kg oral, 0.5 hrs): 3.551; Plasma concentration ([2]; 10 mg/kg oral, 1 hrs): 3.399; Plasma concentration ([2]; 10 mg/kg oral, 2 hrs): 0.9; Plasma concentration ([2]; 10 mg/kg oral, 3 hrs): 0.198; Plasma concentration ([2]; 10 mg/kg oral, 5 hrs): 0.02554; Plasma concentration ([2]; 10 mg/kg oral, 8 hrs): 0.0075; AUC(0-t) ([2]; plasma, po, 10 mg/kg): 1600 ng·h/mL; Cmax ([2]; plasma, po, 10 mg/kg): 1000 ng/mL; Tmax ([2]; plasma, po, 10 mg/kg): 48 min; bioavailability ([2]; plasma, po, 10 mg/kg, Bioavailability (F)): 75%; half-life ([2]; plasma, po, 10 mg/kg, T1/2, rat): 42 min; bioavailability ([2]; plasma, po, 10 mg/kg, bioavailability, oral administration, for rodents): > 75%; half-life ([2]; plasma, po, 10 mg/kg, half-life, oral administration): ~60 min
